Experimental data: patent publication US20240024514A1, “RECOMBINANT ADENO-ASSOCIATED VIRUSES WITH ENHANCED LIVER TROPISM AND USES THEREOF” (priority 2020, published 2024)

Legend:
[1] = tested on: HBV DNA; assay: HBV DNA in HBV transgenic mice; type: in vivo; details: blood, LAM 150 mg/kg, ETV 3.2 mg/kg, rAAV 3 × 10^10 vg/animal
Protocol: (§1) scAAV2/X-H1-shRNA-intron2 and scAAV2/8-H1-shRNA-intron2 were administered to HBV transgenic mice (Beijing Vitalstar Biotechnology Co., Ltd, B6-Tg HBV/Vst; C57BL/6-HBV) via intravenous injection, respectively. Epivir® (Lamivudine) and Baraclude® (Entecavir) were used as controls. Blood was collected on days 0, 7, 14, 21, 28, 35, 56, 84, 112, 140, 168, 196, 224, and 252, centrifuged, and assayed for the level of HBsAg, HBeAg, and HBV DNA.

[2] = tested on: HBeAg; assay: HBeAg in HBV transgenic mice; type: in vivo; details: blood, ETV 3.2 mg/kg, rAAV 3 × 10^10 vg/animal
Protocol: as §1

[3] = tested on: HBsAg; assay: HBsAg in HBV transgenic mice; type: in vivo; details: blood, LAM 150 mg/kg, ETV 3.2 mg/kg, rAAV 3 × 10^10 vg/animal
Protocol: as §1

[4] = tested on: HBV HBsAg; assay: suppression of HBV HBsAg in HepG2.2.15 cells; type: cell-based, Hepatitis B virus; details: 1 ug/mL
Protocol: (§2) scAAV2/X-H1-shRNA-intron2 and scAAV2/8-H1-shRNA-intron2 were used to infect HepG2.2.15 cells with increased Multiplicity of Infection (MOI). The levels of HBV HBeAg, HBV HBsAg, and HBV DNA in samples were measured by HBV HBeAg diagnostic kit (Beijing Wantai Biopharmaceuticals Ltd. Co.), HBV HBsAg diagnostic kit (Beijing Wantai Biopharmaceuticals Ltd. Co.), and HBV nucleotide quantification kit (QIAGEN), respectively. 1 ug/mL of Lamivudine (LAM) was used as a positive control in the experiments. scAAV2/X-H1-NC-intron2 (X-NC) and scAAV2/8-H1-NC-intron2 (8-NC) were used as negative controls. […] The sample was collected every day for nine days and analyzed for the levels of HBeAg, HbsAg, and HBV DNA.

[5] = tested on: HBV DNA; assay: suppression of HBV DNA in HepG2.2.15 cells; type: cell-based, Hepatitis B virus; details: 1 ug/mL
Protocol: as §2

[6] = tested on: HBV HBeAg; assay: suppression of HBV HBeAg in HepG2.2.15 cells; type: cell-based, Hepatitis B virus; details: 1 ug/mL
Protocol: as §2

C=C1[C@H](CO)[C@@H](O)C[C@@H]1n1cnc2c(=O)[nH]c(N)nc21 [ETV, Entecavir]
HBV DNA Levels ([1]; D0): 1 | HBV DNA Levels ([1]; D7): 5.7 | HBV DNA Levels ([1]; D14): 8.68 | HBV DNA Levels ([1]; D21): 0.66 | HBV DNA Levels ([1]; D28): 1.24 | HBV DNA Levels ([1]; D35): 1.08 | HBV DNA Levels ([1]; D56): 1.17 | HBV DNA Levels ([1]; D84): 1.1 | HBV DNA Levels ([1]; D112): 2.24 | HBV DNA Levels ([1]; D140): 1.91 | HBV DNA Levels ([1]; D168): 1.79 | HBV DNA Levels ([1]; D196): 2.17 | HBV DNA Levels ([1]; D224): 2.48 | HBV DNA Levels ([1]; D252): 1.42 | HBeAg Levels ([2]; D0): 130.7 PEIU/mL | HBeAg Levels ([2]; D7): 138.6 PEIU/mL | HBeAg Levels ([2]; D14): 92.1 PEIU/mL | HBeAg Levels ([2]; D21): 66.5 PEIU/mL | HBeAg Levels ([2]; D28): 78.3 PEIU/mL | HBeAg Levels ([2]; D35): 48.2 PEIU/mL | HBeAg Levels ([2]; D56): 131.4 PEIU/mL | HBeAg Levels ([2]; D84): 105.1 PEIU/mL | HBeAg Levels ([2]; D112): 133.8 PEIU/mL | HBeAg Levels ([2]; D140): 178.5 PEIU/mL | HBeAg Levels ([2]; D168): 125.9 PEIU/mL | HBeAg Levels ([2]; D196): 150.5 PEIU/mL | HBeAg Levels ([2]; D224): 123.5 PEIU/mL | HBeAg Levels ([2]; D252): 155.1 PEIU/mL | HBsAg Levels ([3]; D0): 1 | HBsAg Levels ([3]; D7): 1.52 | HBsAg Levels ([3]; D14): 1.51 | HBsAg Levels ([3]; D21): 1.08 | HBsAg Levels ([3]; D28): 1.55 | HBsAg Levels ([3]; D35): 1.8 | HBsAg Levels ([3]; D56): 1.21 | HBsAg Levels ([3]; D84): 1.18 | HBsAg Levels ([3]; D112): 0.43 | HBsAg Levels ([3]; D140): 1.04 | HBsAg Levels ([3]; D168): 1.23 | HBsAg Levels ([3]; D196): 1.48 | HBsAg Levels ([3]; D224): 1.16 | HBsAg Levels ([3]; D252): 0.72

Nc1ccn([C@@H]2CS[C@H](CO)O2)c(=O)n1 [Lamivudine]
HBV DNA Levels ([1]; D0): 1 | HBV DNA Levels ([1]; D7): 1.3 | HBV DNA Levels ([1]; D14): 0.69 | HBV DNA Levels ([1]; D21): 0.49 | HBV DNA Levels ([1]; D28): 0.87 | HBV DNA Levels ([1]; D35): 0.72 | HBV DNA Levels ([1]; D56): 0.97 | HBV DNA Levels ([1]; D84): 0.43 | HBV DNA Levels ([1]; D112): 1.64 | HBV DNA Levels ([1]; D140): 0.92 | HBV DNA Levels ([1]; D168): 0.63 | HBV DNA Levels ([1]; D196): 0.18 | HBV DNA Levels ([1]; D224): 0.12 | HBV DNA Levels ([1]; D252): 0.23 | level of HBsAg ([4]; D0): 1 | level of HBsAg ([4]; D1): 0.7085 | level of HBsAg ([4]; D2): 1.069 | level of HBsAg ([4]; D3): 0.8838 | level of HBsAg ([4]; D4): 0.8549 | level of HBsAg ([4]; D5): 0.9837 | level of HBsAg ([4]; D6): 1.128 | level of HBsAg ([4]; D7): 1.284 | level of HBsAg ([4]; D8): 1.324 | level of HBsAg ([4]; D9): 0.7175 | HBsAg Levels ([3]; D0): 1 | HBsAg Levels ([3]; D7): 1 | HBsAg Levels ([3]; D14): 0.98 | HBsAg Levels ([3]; D21): 1.01 | HBsAg Levels ([3]; D28): 0.96 | HBsAg Levels ([3]; D35): 1.23 | HBsAg Levels ([3]; D56): 0.84 | HBsAg Levels ([3]; D84): 0.88 | HBsAg Levels ([3]; D112): 0.5 | HBsAg Levels ([3]; D140): 0.98 | HBsAg Levels ([3]; D168): 1.1 | HBsAg Levels ([3]; D196): 0.82 | HBsAg Levels ([3]; D224): 0.76 | HBsAg Levels ([3]; D252): 0.46 | level of HBV DNA ([5]; D0): 1 | level of HBV DNA ([5]; D1): 0.6797 | level of HBV DNA ([5]; D2): 0.358 | level of HBV DNA ([5]; D3): 0.357 | level of HBV DNA ([5]; D4): 0.1907 | level of HBV DNA ([5]; D5): 0.05735 | level of HBV DNA ([5]; D6): 0.02341 | level of HBV DNA ([5]; D7): 0.04001 | level of HBV DNA ([5]; D8): 0.02104 | level of HBV DNA ([5]; D9): 0.006153 | level of HBeAg ([6]; D0): 1 | level of HBeAg ([6]; D1): 1.323 | level of HBeAg ([6]; D2): 0.716 | level of HBeAg ([6]; D3): 0.9612 | level of HBeAg ([6]; D4): 1.035 | level of HBeAg ([6]; D5): 1.916 | level of HBeAg ([6]; D6): 0.9979 | level of HBeAg ([6]; D7): 1.148 | level of HBeAg ([6]; D8): 0.9362 | level of HBeAg ([6]; D9): 0.5632
